Values of other authors in patent US4761405A, “Antagonists of specific excitatory amino acid neurotransmitter receptors having increased potency” (priority 1987, dated 1988).

Legend:
[1] = test system: neurotoxic and convulsive actions of NMDA, IBO and Quin; conditions: in vivo; cited from earlier work
ischemic brain damage = conditions: intrahippocampally; rodent carotid artery occlusion model; cited from earlier work
[2] = test system: chemically-induced seizures; conditions: rodents; cited from earlier work
[3] = test system: photically-induced myoclonus; conditions: i.v.; baboon; cited from earlier work
[4] = test system: audiogenically-induced seizures; conditions: i.c.v. and i.v.; genetically susceptible mice; cited from earlier work
[5] = test system: electroshock-induced seizures; conditions: mice; cited from earlier work

## N[C@H](CCCCCP(=O)(O)O)C(=O)O [AP7, D(-)-2-amini-7-phosphonoheptanoic acid]
[1]
  Effect on neurotoxic and convulsive actions of NMDA, IBO and Quin (but not KA): interferring with the neurotoxic and convulsive actions of NMDA, the exogenous excitotoxin, IBO, and the endogenous excitotoxin Quin (but not KA)
Ischemic brain damage
  Effect on ischemic brain damage: markedly reduce or eliminate ischemic brain damage
[2]
  Effect on chemically-induced seizures: prevents chemically-induced seizures
[3]
  Effect on photically-induced myoclonus: suppresses photically-induced myoclonus
[4]
  Protection against audiogenically-induced seizures: protects against audiogenically-induced seizures
[5]
  Effect on threshold current for electroshock-induced seizures: increased threshold current for electroshock-induced seizures
